Experimental data as given in ChEMBL document CHEMBL4152230, “Discovery of N-{3-[(ethanimidoylamino)methyl]benzyl}-l-prolinamide dihydrochloride: A new potent and selective inhibitor of the inducible nitric oxide synthase as a promising agent for the therapy of malignant glioma” (Eur J Med Chem, 2018).
Activity calls are given as the source filed them. The rule behind the calls is not given here.

Assays:
[1] = target: T1, Nitric oxide synthase, inducible (Mus musculus, UniProt P29477); assay: Inhibition of recombinant mouse iNOS using [3H]L-arginine as substrate preincubated for 15 mins followed by NADPH addition measured after 20 mins in presence of FMN/FAD by liquid scintillation counting method
T1 sequence (P29477 whole entry): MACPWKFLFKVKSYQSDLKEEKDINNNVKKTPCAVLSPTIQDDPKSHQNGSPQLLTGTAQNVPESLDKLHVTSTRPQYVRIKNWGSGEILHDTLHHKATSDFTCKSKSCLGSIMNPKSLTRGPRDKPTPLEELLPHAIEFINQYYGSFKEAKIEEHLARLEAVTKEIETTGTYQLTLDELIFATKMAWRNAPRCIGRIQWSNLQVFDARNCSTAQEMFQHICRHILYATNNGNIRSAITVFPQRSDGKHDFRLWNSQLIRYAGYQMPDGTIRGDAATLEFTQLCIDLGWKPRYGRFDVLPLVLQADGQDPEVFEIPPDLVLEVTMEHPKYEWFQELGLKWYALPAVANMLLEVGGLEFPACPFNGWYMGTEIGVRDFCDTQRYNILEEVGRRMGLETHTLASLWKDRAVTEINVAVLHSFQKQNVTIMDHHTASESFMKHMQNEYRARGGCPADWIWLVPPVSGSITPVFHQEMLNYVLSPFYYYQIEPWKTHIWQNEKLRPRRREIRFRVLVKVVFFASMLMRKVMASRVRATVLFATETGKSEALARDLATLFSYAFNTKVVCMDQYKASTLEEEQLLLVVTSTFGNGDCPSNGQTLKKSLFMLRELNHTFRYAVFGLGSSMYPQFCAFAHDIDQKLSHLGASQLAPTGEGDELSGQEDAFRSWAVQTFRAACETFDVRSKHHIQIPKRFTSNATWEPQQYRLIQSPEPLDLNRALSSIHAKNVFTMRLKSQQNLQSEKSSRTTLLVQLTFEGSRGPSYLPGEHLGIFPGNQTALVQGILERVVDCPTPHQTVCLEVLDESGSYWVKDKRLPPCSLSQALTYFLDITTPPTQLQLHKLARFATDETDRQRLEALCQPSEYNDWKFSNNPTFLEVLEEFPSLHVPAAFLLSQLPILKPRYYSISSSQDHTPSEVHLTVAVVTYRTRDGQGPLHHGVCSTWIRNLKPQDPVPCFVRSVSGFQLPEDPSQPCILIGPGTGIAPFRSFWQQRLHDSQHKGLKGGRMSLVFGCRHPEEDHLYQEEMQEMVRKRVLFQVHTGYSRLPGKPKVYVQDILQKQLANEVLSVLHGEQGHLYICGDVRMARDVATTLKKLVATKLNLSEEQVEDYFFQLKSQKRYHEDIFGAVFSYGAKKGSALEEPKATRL

[2] = Selectivity index, ratio of IC50 for recombinant bovine eNOS to IC50 for recombinant mouse iNOS
Nitric oxide synthase 3 = target: T2, Nitric oxide synthase 3 (Bos taurus, UniProt P29473); assay: Inhibition of recombinant bovine eNOS using [3H]L-arginine as substrate preincubated for 15 mins followed by NADPH addition measured after 20 mins in presence of FMN/FAD by liquid scintillation counting method
T2 sequence (P29473 whole entry): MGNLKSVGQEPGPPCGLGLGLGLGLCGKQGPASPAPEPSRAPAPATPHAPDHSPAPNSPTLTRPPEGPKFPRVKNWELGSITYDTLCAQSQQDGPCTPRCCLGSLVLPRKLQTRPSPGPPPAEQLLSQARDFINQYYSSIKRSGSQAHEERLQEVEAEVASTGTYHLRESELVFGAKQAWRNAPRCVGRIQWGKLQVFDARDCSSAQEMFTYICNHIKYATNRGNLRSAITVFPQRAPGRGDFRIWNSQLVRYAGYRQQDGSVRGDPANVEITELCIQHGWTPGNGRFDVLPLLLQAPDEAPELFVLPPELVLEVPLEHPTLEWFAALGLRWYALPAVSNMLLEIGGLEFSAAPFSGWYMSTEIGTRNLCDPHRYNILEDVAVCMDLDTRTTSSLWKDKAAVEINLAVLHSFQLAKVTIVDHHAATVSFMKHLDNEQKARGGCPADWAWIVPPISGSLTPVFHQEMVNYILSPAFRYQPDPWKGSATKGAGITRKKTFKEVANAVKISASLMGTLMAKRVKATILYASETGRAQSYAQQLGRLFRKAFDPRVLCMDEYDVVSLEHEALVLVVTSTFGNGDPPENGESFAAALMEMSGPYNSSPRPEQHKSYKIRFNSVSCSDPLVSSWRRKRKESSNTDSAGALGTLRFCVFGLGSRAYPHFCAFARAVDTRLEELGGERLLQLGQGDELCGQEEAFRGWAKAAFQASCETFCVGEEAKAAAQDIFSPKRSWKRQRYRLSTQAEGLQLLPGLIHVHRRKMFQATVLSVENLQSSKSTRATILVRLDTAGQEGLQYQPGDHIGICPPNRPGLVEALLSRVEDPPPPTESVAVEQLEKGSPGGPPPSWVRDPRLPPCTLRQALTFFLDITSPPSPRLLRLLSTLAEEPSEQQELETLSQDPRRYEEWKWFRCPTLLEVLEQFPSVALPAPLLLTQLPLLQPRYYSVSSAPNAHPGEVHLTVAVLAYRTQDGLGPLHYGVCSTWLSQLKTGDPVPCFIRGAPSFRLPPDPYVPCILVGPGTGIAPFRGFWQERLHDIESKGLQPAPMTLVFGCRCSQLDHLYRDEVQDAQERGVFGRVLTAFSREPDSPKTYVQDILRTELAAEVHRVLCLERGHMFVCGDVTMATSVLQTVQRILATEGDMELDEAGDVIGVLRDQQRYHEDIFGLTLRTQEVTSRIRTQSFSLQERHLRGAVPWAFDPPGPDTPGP

[3] = target: Nitric oxide synthase, inducible (Rattus norvegicus) (UniProt Q06518); assay: Ex vivo inhibition of iNOS in mesenteric vascular arteries isolated from LPS-induced septic shock Sprague-Dawley rat model assessed as increase in noradrenaline-mediated vasoconstriction by measuring changes in perfusion pressure at 100 uM preincubated for 30 mins followed by noradrenaline treatment
Nitric oxide synthase, inducible (Rattus norvegicus), sequence (Q06518 whole entry, the tested form may be a part): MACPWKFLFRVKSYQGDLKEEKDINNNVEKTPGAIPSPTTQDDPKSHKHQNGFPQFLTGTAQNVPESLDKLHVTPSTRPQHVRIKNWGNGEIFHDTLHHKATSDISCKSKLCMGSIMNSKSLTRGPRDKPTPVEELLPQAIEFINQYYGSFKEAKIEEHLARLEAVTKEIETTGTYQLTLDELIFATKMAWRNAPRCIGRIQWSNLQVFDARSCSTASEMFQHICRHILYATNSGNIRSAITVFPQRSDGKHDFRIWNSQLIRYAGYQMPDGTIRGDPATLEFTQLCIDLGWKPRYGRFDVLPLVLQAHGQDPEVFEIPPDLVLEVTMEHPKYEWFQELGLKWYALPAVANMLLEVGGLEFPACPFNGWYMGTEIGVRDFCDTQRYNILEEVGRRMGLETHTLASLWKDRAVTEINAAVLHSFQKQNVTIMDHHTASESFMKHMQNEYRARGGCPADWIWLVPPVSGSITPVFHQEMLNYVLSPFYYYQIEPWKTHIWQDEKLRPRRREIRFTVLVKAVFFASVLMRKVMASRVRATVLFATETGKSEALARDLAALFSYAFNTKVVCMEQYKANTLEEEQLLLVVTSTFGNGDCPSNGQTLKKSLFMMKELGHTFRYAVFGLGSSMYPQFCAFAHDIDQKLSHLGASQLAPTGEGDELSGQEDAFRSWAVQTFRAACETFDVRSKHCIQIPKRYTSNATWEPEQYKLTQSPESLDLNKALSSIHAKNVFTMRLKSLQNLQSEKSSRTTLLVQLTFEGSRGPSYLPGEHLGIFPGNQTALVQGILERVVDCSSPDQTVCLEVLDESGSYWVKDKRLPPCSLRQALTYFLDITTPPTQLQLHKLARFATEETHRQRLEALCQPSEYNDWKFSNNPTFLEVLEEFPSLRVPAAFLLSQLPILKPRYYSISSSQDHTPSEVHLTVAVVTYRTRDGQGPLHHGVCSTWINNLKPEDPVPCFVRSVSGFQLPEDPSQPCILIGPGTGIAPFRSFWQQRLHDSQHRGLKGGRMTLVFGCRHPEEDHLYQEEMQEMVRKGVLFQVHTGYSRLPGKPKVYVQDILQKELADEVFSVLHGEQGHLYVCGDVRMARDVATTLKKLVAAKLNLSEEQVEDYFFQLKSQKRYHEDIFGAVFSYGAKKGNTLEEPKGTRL

IC50 [1]	Ratio IC50 [2]	IC50 (Nitric oxide synthase 3)	SMILES	inhibition [3]
> 10 µM	–	–	CC(=N)NCc1cccc(CNC(=O)[C@@H](N)CC(N)=O)c1	–
> 10 µM	–	–	CSCC[C@H](N)C(=O)NCc1cccc(CNC(C)=N)c1	–
> 10 µM	–	–	CC(=N)NCc1cccc(CNC(=O)[C@@H](N)C(C)C)c1	–
> 10 µM	–	–	CC(=N)NCc1cccc(CNC(=O)[C@@H](N)CO)c1	–
1.02 µM	323	331 µM	CC(=N)NCc1cccc(CNC(=O)[C@@H](N)CC(=O)O)c1	–
0.17 µM	> 5850	> 1000 µM	CC[C@H](C)[C@H](N)C(=O)NCc1cccc(CNC(C)=N)c1	–
0.45 µM	> 2220	> 1000 µM	CC(=N)NCc1cccc(CNC(=O)[C@@H](N)CCCNC(=N)N)c1	–
> 10 µM	–	–	CC(=N)NCc1cccc(CNC(=O)[C@@H](N)Cc2ccccc2)c1	–
> 10 µM	–	–	CC(=N)NCc1cccc(CNC(=O)[C@@H](N)CS)c1	–
–	–	–	COC(=O)[C@@H](N)CCCNC(=N)N[N+](=O)[O-]	Active
